US6518243B1, “Desleucyl glycopeptide antibiotics and methods of making same” (Trustees of Princeton University, priority 1999, dated 2003)

Assays:
[1] = tested on: S. epidermidis (ATCC 12228); assay: Zone of inhibition screen, 96 well agar array format; type: cell-based; parameters: scale not given here
How it was run: (§1)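 Compounds are screened one by one for antibacterial effect in an agar array of 96 wells, using the same set of strains throughout.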

[2] = tested on: E. faecalis (CL 4877); assay: as above; type: cell-based; parameters: scale not given here
How it was run: as §1

[3] = zone of inhibition relative to 1 mg/ml p-chlorobiphenylvancomycin
[4] = zone of inhibition relative to 1 mg/ml stock solution of p-chlorobiphenylvancomycin

CC1OC(OC2C(Oc3c4cc5cc3Oc3ccc(cc3Cl)C(O)C3NC(=O)C(NC(=O)C5NC(=O)C(CC(N)=O)NC(=O)C(NC(=O)Cc5ccsc5)C(O)c5ccc(c(Cl)c5)O4)c4ccc(O)c(c4)-c4c(O)cc(O)cc4C(C(=O)O)NC3=O)OC(CO)C(O)C2O)CC(C)(NCc2ccc(-c3ccc(Cl)cc3)cc2)C1O (stereo not shown) [Compound 320]
zone score, S. epidermidis ATCC 12228 [1, 3]: 2
zone score, E. faecalis CL 4877 [2, 3]: 2

CC1OC(OC2C(Oc3c4cc5cc3Oc3ccc(cc3Cl)C(O)C3NC(=O)C(NC(=O)C5NC(=O)C(CC(N)=O)NC(=O)C(NC(=O)CC(NC(=O)OC(C)(C)C)C(N)=O)C(O)c5ccc(c(Cl)c5)O4)c4ccc(O)c(c4)-c4c(O)cc(O)cc4C(C(=O)O)NC3=O)OC(CO)C(O)C2O)CC(C)(NCc2ccc(-c3ccc(Cl)cc3)cc2)C1O (stereo not shown) [Compound 134]
zone score, S. epidermidis ATCC 12228 [1, 4]: 2
zone score, E. faecalis CL 4877 [2, 4]: 2

CC1OC(OC2C(Oc3c4cc5cc3Oc3ccc(cc3Cl)C(O)C3NC(=O)C(NC(=O)C5NC(=O)C(CC(N)=O)NC(=O)C(NC(=O)C(N)CC(N)=O)C(O)c5ccc(c(Cl)c5)O4)c4ccc(O)c(c4)-c4c(O)cc(O)cc4C(C(=O)O)NC3=O)OC(CO)C(O)C2O)CC(C)(NCc2ccc(-c3ccc(Cl)cc3)cc2)C1O (stereo not shown) [Compound 53]
zone score, S. epidermidis ATCC 12228 [1, 4]: 2
zone score, E. faecalis CL 4877 [2, 4]: 2

CC(NC=O)C(=O)NC1C(=O)NC(CC(N)=O)C(=O)NC2C(=O)NC3C(=O)NC(C(=O)NC(C(=O)O)c4cc(O)cc(O)c4-c4cc3ccc4O)C(O)c3ccc(c(Cl)c3)Oc3cc2cc(c3OC2OC(CO)C(O)C(O)C2OC2CC(C)(NCc3ccc(-c4ccc(Cl)cc4)cc3)C(O)C(C)O2)Oc2ccc(cc2Cl)C1O (mixture of isomers) [Compound 325]
zone score, S. epidermidis ATCC 12228 [1, 3]: 2
zone score, E. faecalis CL 4877 [2, 3]: 2

CC1OC(OC2C(Oc3c4cc5cc3Oc3ccc(cc3Cl)C(O)C3NC(=O)C(NC(=O)C5NC(=O)C(CC(N)=O)NC(=O)C(NC(=O)Cn5cnnn5)C(O)c5ccc(c(Cl)c5)O4)c4ccc(O)c(c4)-c4c(O)cc(O)cc4C(C(=O)O)NC3=O)OC(CO)C(O)C2O)CC(C)(NCc2ccc(-c3ccc(Cl)cc3)cc2)C1O (stereo not shown) [Compound 228]
zone score, S. epidermidis ATCC 12228 [1, 3]: 2
zone score, E. faecalis CL 4877 [2, 3]: 2

CSCCC(NC(C)=O)C(=O)NC1C(=O)NC(CC(N)=O)C(=O)NC2C(=O)NC3C(=O)NC(C(=O)NC(C(=O)O)c4cc(O)cc(O)c4-c4cc3ccc4O)C(O)c3ccc(c(Cl)c3)Oc3cc2cc(c3OC2OC(CO)C(O)C(O)C2OC2CC(C)(NCc3ccc(-c4ccc(Cl)cc4)cc3)C(O)C(C)O2)Oc2ccc(cc2Cl)C1O (stereo not shown) [Compound 182]
zone score, S. epidermidis ATCC 12228 [1, 4]: 2
zone score, E. faecalis CL 4877 [2, 4]: 2

Cc1cn(CC(=O)NC2C(=O)NC(CC(N)=O)C(=O)NC3C(=O)NC4C(=O)NC(C(=O)NC(C(=O)O)c5cc(O)cc(O)c5-c5cc4ccc5O)C(O)c4ccc(c(Cl)c4)Oc4cc3cc(c4OC3OC(CO)C(O)C(O)C3OC3CC(C)(NCc4ccc(-c5ccc(Cl)cc5)cc4)C(O)C(C)O3)Oc3ccc(cc3Cl)C2O)c(=O)[nH]c1=O (stereo not shown) [Compound 207]
zone score, S. epidermidis ATCC 12228 [1, 3]: 2

CC1OC(OC2C(Oc3c4cc5cc3Oc3ccc(cc3Cl)C(O)C3NC(=O)C(NC(=O)C5NC(=O)C(CC(N)=O)NC(=O)C(NC(=O)CNC=O)C(O)c5ccc(c(Cl)c5)O4)c4ccc(O)c(c4)-c4c(O)cc(O)cc4C(C(=O)O)NC3=O)OC(CO)C(O)C2O)CC(C)(NCc2ccc(-c3ccc(Cl)cc3)cc2)C1O (stereo not shown) [Compound 193]
zone score, S. epidermidis ATCC 12228 [1, 4]: 2
zone score, E. faecalis CL 4877 [2, 4]: 2

CC1OC(OC2C(Oc3c4cc5cc3Oc3ccc(cc3Cl)C(O)C3NC(=O)C(NC(=O)C5NC(=O)C(CC(N)=O)NC(=O)C(NC(=O)Cc5ccc(F)c(F)c5)C(O)c5ccc(c(Cl)c5)O4)c4ccc(O)c(c4)-c4c(O)cc(O)cc4C(C(=O)O)NC3=O)OC(CO)C(O)C2O)CC(C)(NCc2ccc(-c3ccc(Cl)cc3)cc2)C1O (stereo not shown) [Compound 252]
zone score, S. epidermidis ATCC 12228 [1, 3]: 2

CC1OC(OC2C(Oc3c4cc5cc3Oc3ccc(cc3Cl)C(O)C3NC(=O)C(NC(=O)C5NC(=O)C(CC(N)=O)NC(=O)C(NC(=O)c5ccc(O)nc5)C(O)c5ccc(c(Cl)c5)O4)c4ccc(O)c(c4)-c4c(O)cc(O)cc4C(C(=O)O)NC3=O)OC(CO)C(O)C2O)CC(C)(NCc2ccc(-c3ccc(Cl)cc3)cc2)C1O (stereo not shown) [Compound 276]
zone score, S. epidermidis ATCC 12228 [1, 3]: 2

CC1OC(OC2C(Oc3c4cc5cc3Oc3ccc(cc3Cl)C(O)C3NC(=O)C(NC(=O)C5NC(=O)C(CC(N)=O)NC(=O)C(NC(=O)c5cccc(C(F)(F)F)c5)C(O)c5ccc(c(Cl)c5)O4)c4ccc(O)c(c4)-c4c(O)cc(O)cc4C(C(=O)O)NC3=O)OC(CO)C(O)C2O)CC(C)(NCc2ccc(-c3ccc(Cl)cc3)cc2)C1O (stereo not shown) [Compound 247]
zone score, S. epidermidis ATCC 12228 [1, 3]: 2
zone score, E. faecalis CL 4877 [2, 3]: 2

CC1OC(OC2C(Oc3c4cc5cc3Oc3ccc(cc3Cl)C(O)C3NC(=O)C(NC(=O)C5NC(=O)C(CC(N)=O)NC(=O)C(NC(=O)CSCCS(=O)(=O)c5ccc(Cl)cc5)C(O)c5ccc(c(Cl)c5)O4)c4ccc(O)c(c4)-c4c(O)cc(O)cc4C(C(=O)O)NC3=O)OC(CO)C(O)C2O)CC(C)(NCc2ccc(-c3ccc(Cl)cc3)cc2)C1O (stereo not shown) [Compound 300]
zone score, S. epidermidis ATCC 12228 [1, 3]: 2
zone score, E. faecalis CL 4877 [2, 3]: 2

COC(=O)CCC(=O)NC1C(=O)NC(CC(N)=O)C(=O)NC2C(=O)NC3C(=O)NC(C(=O)NC(C(=O)O)c4cc(O)cc(O)c4-c4cc3ccc4O)C(O)c3ccc(c(Cl)c3)Oc3cc2cc(c3OC2OC(CO)C(O)C(O)C2OC2CC(C)(NCc3ccc(-c4ccc(Cl)cc4)cc3)C(O)C(C)O2)Oc2ccc(cc2Cl)C1O (stereo not shown) [Compound 305]
zone score, S. epidermidis ATCC 12228 [1, 3]: 2

CC1OC(OC2C(Oc3c4cc5cc3Oc3ccc(cc3Cl)C(O)C3NC(=O)C(NC(=O)C5NC(=O)C(CC(N)=O)NC(=O)C(NC(=O)c5ccc[n+]([O-])c5)C(O)c5ccc(c(Cl)c5)O4)c4ccc(O)c(c4)-c4c(O)cc(O)cc4C(C(=O)O)NC3=O)OC(CO)C(O)C2O)CC(C)(NCc2ccc(-c3ccc(Cl)cc3)cc2)C1O (stereo not shown) [Compound 308]
zone score, S. epidermidis ATCC 12228 [1, 3]: 2
zone score, E. faecalis CL 4877 [2, 3]: 2

COc1ccc(C=CC(=O)NC2C(=O)NC(CC(N)=O)C(=O)NC3C(=O)NC4C(=O)NC(C(=O)NC(C(=O)O)c5cc(O)cc(O)c5-c5cc4ccc5O)C(O)c4ccc(c(Cl)c4)Oc4cc3cc(c4OC3OC(CO)C(O)C(O)C3OC3CC(C)(NCc4ccc(-c5ccc(Cl)cc5)cc4)C(O)C(C)O3)Oc3ccc(cc3Cl)C2O)cc1 (stereo not shown) [Compound 273]
zone score, S. epidermidis ATCC 12228 [1, 3]: 2

CC1OC(OC2C(Oc3c4cc5cc3Oc3ccc(cc3Cl)C(O)C3NC(=O)C(NC(=O)C5NC(=O)C(CC(N)=O)NC(=O)C(NC(=O)Cc5cccs5)C(O)c5ccc(c(Cl)c5)O4)c4ccc(O)c(c4)-c4c(O)cc(O)cc4C(C(=O)O)NC3=O)OC(CO)C(O)C2O)CC(C)(NCc2ccc(-c3ccc(Cl)cc3)cc2)C1O (stereo not shown) [Compound 318]
zone score, S. epidermidis ATCC 12228 [1, 3]: 2

CC1OC(OC2C(Oc3c4cc5cc3Oc3ccc(cc3Cl)C(O)C3NC(=O)C(NC(=O)C5NC(=O)C(CC(N)=O)NC(=O)C(NC(=O)c5ccccc5N)C(O)c5ccc(c(Cl)c5)O4)c4ccc(O)c(c4)-c4c(O)cc(O)cc4C(C(=O)O)NC3=O)OC(CO)C(O)C2O)CC(C)(NCc2ccc(-c3ccc(Cl)cc3)cc2)C1O (stereo not shown) [Compound 280]
zone score, S. epidermidis ATCC 12228 [1, 3]: 2
zone score, E. faecalis CL 4877 [2, 3]: 2

CC(=O)Oc1cc(C(=O)NC2C(=O)NC(CC(N)=O)C(=O)NC3C(=O)NC4C(=O)NC(C(=O)NC(C(=O)O)c5cc(O)cc(O)c5-c5cc4ccc5O)C(O)c4ccc(c(Cl)c4)Oc4cc3cc(c4OC3OC(CO)C(O)C(O)C3OC3CC(C)(NCc4ccc(-c5ccc(Cl)cc5)cc4)C(O)C(C)O3)Oc3ccc(cc3Cl)C2O)cc(OC(C)=O)c1OC(C)=O (stereo not shown) [Compound 250]
zone score, S. epidermidis ATCC 12228 [1, 3]: 2

CC1OC(OC2C(Oc3c4cc5cc3Oc3ccc(cc3Cl)[C@@H](O)[C@@H](NC(=O)/C=C\C(N)=O)C(=O)N[C@@H](CC(N)=O)C(=O)N[C@H]5C(=O)NC3C(=O)N[C@H](C(=O)N[C@@H](C(=O)O)c5cc(O)cc(O)c5-c5cc3ccc5O)[C@H](O)c3ccc(c(Cl)c3)O4)OC(CO)C(O)C2O)CC(C)(NCc2ccc(-c3ccc(Cl)cc3)cc2)C1O (stereo partly shown) [Compound 170]
zone score, S. epidermidis ATCC 12228 [1, 4]: 2
zone score, E. faecalis CL 4877 [2, 4]: 2

CC1NC(=O)NC1CCCCCC(=O)NC1C(=O)NC(CC(N)=O)C(=O)NC2C(=O)NC3C(=O)NC(C(=O)NC(C(=O)O)c4cc(O)cc(O)c4-c4cc3ccc4O)C(O)c3ccc(c(Cl)c3)Oc3cc2cc(c3OC2OC(CO)C(O)C(O)C2OC2CC(C)(NCc3ccc(-c4ccc(Cl)cc4)cc3)C(O)C(C)O2)Oc2ccc(cc2Cl)C1O (stereo not shown) [Compound 284]
zone score, S. epidermidis ATCC 12228 [1, 3]: 2
zone score, E. faecalis CL 4877 [2, 3]: 2

CC1OC(OC2C(Oc3c4cc5cc3Oc3ccc(cc3Cl)C(O)C3NC(=O)C(NC(=O)C5NC(=O)C(CC(N)=O)NC(=O)C(NC(=O)c5cccs5)C(O)c5ccc(c(Cl)c5)O4)c4ccc(O)c(c4)-c4c(O)cc(O)cc4C(C(=O)O)NC3=O)OC(CO)C(O)C2O)CC(C)(NCc2ccc(-c3ccc(Cl)cc3)cc2)C1O (stereo not shown) [Compound 319]
zone score, S. epidermidis ATCC 12228 [1, 3]: 2
zone score, E. faecalis CL 4877 [2, 3]: 2

COC(=O)CCCC(=O)NC1C(=O)NC(CC(N)=O)C(=O)NC2C(=O)NC3C(=O)NC(C(=O)NC(C(=O)O)c4cc(O)cc(O)c4-c4cc3ccc4O)C(O)c3ccc(c(Cl)c3)Oc3cc2cc(c3OC2OC(CO)C(O)C(O)C2OC2CC(C)(NCc3ccc(-c4ccc(Cl)cc4)cc3)C(O)C(C)O2)Oc2ccc(cc2Cl)C1O (stereo not shown) [Compound 304]
zone score, S. epidermidis ATCC 12228 [1, 3]: 2

CC1OC(OC2C(Oc3c4cc5cc3Oc3ccc(cc3Cl)C(O)C3NC(=O)C(NC(=O)C5NC(=O)C(CC(N)=O)NC(=O)C(NC(=O)C(N)=O)C(O)c5ccc(c(Cl)c5)O4)c4ccc(O)c(c4)-c4c(O)cc(O)cc4C(C(=O)O)NC3=O)OC(CO)C(O)C2O)CC(C)(NCc2ccc(-c3ccc(Cl)cc3)cc2)C1O (stereo not shown) [Compound 327]
zone score, S. epidermidis ATCC 12228 [1, 3]: 2
